Source: ChEMBL document CHEMBL1156454, “Essential requirement for sphingosine kinase 2 in a sphingolipid apoptosis pathway activated by FTY720 analogues” (J Biol Chem, 2007)
Activity calls are given as the source filed them. No cut-off for these calls is given here.

Columns and labels:
[1] = test system: Jurkat; experiment: Reversal of inhibition of mitochondrial function in human Jurkat cells after 18 hrs in presence of Z-VAD-fmk; type: functional, cell-based
[2] = test system: Jurkat; experiment: Resistance index, ratio of IC50 for 2-amino-4-(4-heptyloxyphenyl)-2-methylbutanol-resistant human Jurkat SBR3 mutant cells to IC50 for human wild type Jurkat cells; type: functional
[3] = test system: Jurkat; experiment: Inhibition of 2-amino-4-(4-heptyloxyphenyl)-2-methylbutanol-resistant human Jurkat SBR1 mutant cells proliferation after 18 hrs by MTT assay; type: functional, cell-based
[4] = test system: Jurkat; experiment: Inhibition of wild type human Jurkat cells after 18 hrs by MTT assay; type: functional, cell-based
[5] = test system: Jurkat; experiment: Inhibition of human 2-amino-4-(4-heptyloxyphenyl)-2-methylbutanol-resistant human Jurkat SBR3 mutant cells proliferation after 18 hrs by MTT assay; type: functional, cell-based
[6] = test system: Jurkat; experiment: Resistance index, ratio of IC50 for 2-amino-4-(4-heptyloxyphenyl)-2-methylbutanol-resistant human Jurkat SBR2 mutant cells to IC50 for human wild type Jurkat cells; type: functional
[7] = test system: Jurkat; experiment: Resistance index, ratio of IC50 for 2-amino-4-(4-heptyloxyphenyl)-2-methylbutanol-resistant human Jurkat SBR1 mutant cells to IC50 for human wild type Jurkat cells; type: functional
[8] = test system: Jurkat; experiment: Inhibition of 2-amino-4-(4-heptyloxyphenyl)-2-methylbutanol-resistant human Jurkat SBR2 mutant cells proliferation after 18 hrs by MTT assay; type: functional, cell-based
[9] = Cell viability of Sphk2-knock out mouse embryonic fibroblasts assessed as resistant cells after 18 hrs by propidium iodide exclusion assay; type: functional, cell-based; conditions: Fibroblast
[10] = molecular target: Sphingosine kinase 1 (Homo sapiens) (UniProt Q9NYA1); experiment: Inhibition of Sphk1 expressed in HEK293 cells; type: cell-based
[11] = test system: Splenocyte; experiment: Induction of apoptosis in mouse primary splenocytes assessed as cell death after 18 hrs; type: functional, cell-based
[12] = test system: Splenocyte; experiment: Induction of apoptosis in Sphk2-knock out mouse primary splenocytes assessed as resistant cells after 18 hrs by propidium iodide exclusion assay; type: functional, cell-based
[13] = test system: Splenocyte; experiment: Induction of apoptosis in Sphk1-knock out mouse primary splenocytes assessed as resistant cells after 18 hrs by propidium iodide exclusion assay; type: functional, cell-based
[14] = test system: Lymphocyte; experiment: Induction of apoptosis in MRL/MpJ-lpr/lpr mouse lymph node lymphocytes assessed as increase in apoptotic cells in lymph nodes at 1 mg/kg, ip by annexin V method; type: functional, organism-based; design: dose 1 mg/kg
[15] = test system: Jurkat; experiment: Induction of apoptosis in human Jurkat cells assessed as PARP cleavage at 5 uM after 16 hrs; type: functional, cell-based
[16] = test system: Lymphocyte; experiment: Induction of apoptosis in MRL/MpJ-lpr/lpr mouse thymus lymphocytes assessed as increase in apoptotic cells in thymus at 1 mg/kg, ip by annexin V method; type: functional, organism-based; design: dose 1 mg/kg
[17] = test system: Jurkat; experiment: Induction of apoptosis in human Jurkat SBR1 mutant cells assessed as activation of effector capsases after 18 hrs; type: functional, cell-based
[18] = test system: Jurkat; experiment: Induction of apoptosis in human Jurkat cells assessed as increase in cytosolic calcium levels after 8 hrs; type: functional, cell-based
[19] = Drug level in MRL/Mpj-lpr/lpr mouse thymus assessed as (R)-2-amino-4-(4-(heptyloxy)phenyl)-2-methylbutyl dihydrogen phosphate levels per mg of tissue at 1 mg/kg, ip after 1 hr; type: ADME, organism-based; design: dose 1 mg/kg, route intraperitoneal; conditions: in vivo
[20] = test system: Jurkat; experiment: Induction of apoptosis in human Jurkat SBR1 cells expressing Sphk2 after 18 hrs by MTT assay; type: functional, cell-based
[21] = test system: Spleen; experiment: Drug level in MRL/MpJ-lpr/lpr mouse spleen assessed as (R)-2-amino-4-(4-(heptyloxy)phenyl)-2-methylbutyl dihydrogen phosphate levels per mg of tissue at 1 mg/kg, ip after 1 hr; type: ADME, organism-based; design: dose 1 mg/kg, route intraperitoneal; conditions: in vivo
[22] = test system: Jurkat; experiment: Induction of apoptosis in human Jurkat SBR1 cells expressing Sphk1 after 18 hrs by MTT assay; type: functional, cell-based
[23] = test system: Lymphocyte; experiment: Induction of apoptosis in MRL/MpJ-lpr/lpr mouse spleen lymphocytes assessed as increase in apoptotic cells in spleen at 1 mg/kg, ip by annexin V method; type: functional, organism-based; design: dose 1 mg/kg
[24] = test system: Jurkat; experiment: Induction of apoptosis in human Jurkat cells assessed as activation of effector capsases after 18 hrs; type: functional, cell-based
[25] = test system: Jurkat; experiment: Induction of apoptosis in human Jurkat cells assessed as cell death after 18 hrs; type: functional, cell-based

Chain of Sphingosine kinase 1 (Homo sapiens) (Q9NYA1 whole entry): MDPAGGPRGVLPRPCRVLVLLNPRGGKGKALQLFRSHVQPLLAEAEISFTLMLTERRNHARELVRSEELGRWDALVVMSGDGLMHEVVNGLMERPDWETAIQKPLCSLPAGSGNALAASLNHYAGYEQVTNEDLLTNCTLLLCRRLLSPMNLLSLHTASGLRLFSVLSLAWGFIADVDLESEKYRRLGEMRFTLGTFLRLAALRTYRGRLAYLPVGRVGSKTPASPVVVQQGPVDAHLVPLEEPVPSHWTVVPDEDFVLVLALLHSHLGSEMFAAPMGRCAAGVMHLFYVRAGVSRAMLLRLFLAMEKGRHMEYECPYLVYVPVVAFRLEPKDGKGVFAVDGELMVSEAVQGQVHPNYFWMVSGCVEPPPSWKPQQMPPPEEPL

CCCCCCCCc1ccc(CCC(N)(CO)CO)cc1
Activity [1]: Active

CCCCCCCCCCCCCCC[C@@H](O)[C@@H](N)CO [DIHYDROSPINGOSINE]
Ratio IC50 [2]: 1.8 | IC50 [3]: 4.9 µM | IC50 [4]: 3.53 µM | IC50 [5]: 6.31 µM | Ratio IC50 [6]: 1.3 | Ratio IC50 [7]: 1.4 | IC50 [8]: 3.68 µM

COc1cc([C@@H]2c3cc4c(cc3[C@@H](O[C@@H]3O[C@@H]5CO[C@@H](C)O[C@H]5[C@H](O)[C@H]3O)[C@H]3COC(=O)[C@H]23)OCO4)cc(OC)c1O
Activity [3]: Active | Activity [5]: Active | Activity [8]: Active

CCCCCCCCCCCCC/C=C/[C@@H](O)[C@@H](N)CO [SPHINGOSINE]
Activity [9]: inactive | Ratio IC50 [2]: 1.7 | IC50 [3]: 3.48 µM | IC50 [4]: 2.01 µM | IC50 [5]: 3.38 µM | Ratio IC50 [6]: 1.4 | Ratio IC50 [7]: 1.7 | IC50 [8]: 2.88 µM

CCCCCCCOc1ccc(CC[C@@](C)(N)COP(=O)(O)O)cc1
Activity [10]: inactive | Activity [11]: inactive | Activity [4]: inactive

CCCCCCCOc1ccc(CC[C@@](C)(N)CO)cc1
Activity [12]: Active | Activity [13]: inactive | Activity [14]: Active | Activity [15]: Active | Activity [9]: Active | Activity [16]: inactive | Activity [17]: inactive | Ratio IC50 [2]: 3.1 | Activity [18]: Active | Activity [19]: < 0.2 pmol/mg | Activity [20]: Active | IC50 [3]: 8.72 µM | Activity [21]: < 0.2 pmol/mg | IC50 [4]: 2.32 µM | IC50 [5]: 7.12 µM | Ratio IC50 [6]: 3.3 | Activity [22]: Active | Activity [23]: Active | Ratio IC50 [7]: 3.8 | IC50 [8]: 7.72 µM | Activity [24]: Active

CCCCCCCOc1ccc(CC[C@](C)(N)CO)cc1
Activity [15]: inactive | Activity [11]: inactive | Activity [25]: inactive | Activity [23]: Active

CCCCCCCCCCCCCC[C@@H](O)[C@@H](O)[C@@H](N)CO (single isomer, unassigned) [PHYTOSPHINGOSINE]
Ratio IC50 [2]: 1.1 | IC50 [3]: 6.57 µM | IC50 [4]: 3.75 µM | IC50 [5]: 4.12 µM | Ratio IC50 [6]: 1.4 | Ratio IC50 [7]: 1.8 | IC50 [8]: 5.29 µM
